Assays:
rats = experiment: Morris water maze, spatial navigation; format: in vivo, rat
Excerpt: The Morris water maze like the radial arm maze was developed to test spatial memory (Morris, 1984). The pool is divided into quadrants usually designated North, South, East and West. The water in the pool is made opaque with milk powder. Hidden just beneath the surface in one of the quadrants is a platform that serves as a escape route for rodents placed into the pool. An animal is placed some where in the pool from a variety of different start points and is timed for latency to find the platform, percent time spent in each quadrant, distance traveled and swimming speed. The animals has no visual or spatial cues in the pool and must rely on extra-maze cues, i.e., objects set up outside the pool that can be seen by the swimming animal. Through a series of trials a rat develops “place learning” or knowledge about the position of the platform based upon the extra-maze cues. The platform can be moved to a different quadrant each day combining spatial memory with working memory. This paradigm involves extinction of the prior memory and resolution of a new spatial problem.
The water maze consisted of a black plastic circular pool ca. 150 cm in diameter and 54 cm in height filled to a level of 35 cm with water made opaque with powdered milk. The pool was divided into four quadrants with a platform 10 cm in diameter submerged 2 cm below the surface in the northwest quadrant. The water was maintained at a temperature of 25° C. Around the pool were several visual cues. Above the pool was a video camera for tracking the movement of the experimental animal. The data collection was completely automated using the software developed by HVS Image (Hampton, UK). Before testing, rats were familiarized with the pool and platform placed in the northwest quadrant. Each day for 4 consecutive days, animals were placed into pool at random sites and given two min to find the platform. Animals were treated one hr before testing with 50 μg/kg Mox (n=11) or vehicle (n=10). Following these familiarization trials, animals were tested for spatial navigation. The first day of testing began with the platform in the expected northwest quadrant. All behavior was videotaped for a two min observation period. After testing the animal were dried off and placed back into their home cage. On each subsequent day the platform was moved to a new quadrant and the rat started at different positions. The rat was always placed into the pool facing the side wall. The start positions relative to the platform were different for each of the four trials; however, the platform was always in the same relative position in each quadrant. Twenty cm in from the side of the pool and in the left corner from the center facing out.
The Morris water maze was developed to test spatial memory (Morris, 1984). The pool is divided into quadrants usually designated North, South, East and West. The water in the pool is made opaque with milk powder. Hidden just beneath the surface in one of the quadrants is a platform that serves as a escape route for rodents placed into the pool. An animal is placed some where in the pool from a variety of different start points and is timed for latency to find the platform, percent time spent in each quadrant, distance traveled and swimming speed. The animals have no visual or spatial cues in the pool and must rely on extra-maze cues, i.e., objects set up outside the pool that can be seen by the swimming animal. Through a series of trials a rat develops “place learning” or knowledge about the position of the platform based upon the extra-maze cues. The platform can be moved to a different quadrant each day combining spatial memory with working memory. This paradigm involves extinction of the prior memory and resolution of a new spatial problem.
The water maze consisted of a black plastic circular pool ca. 150 cm in diameter and 54 cm in height filled to a level of 35 cm with water made opaque with powdered milk. […]

Male Wistar rats = experiment: Elevated plus-maze (anxiolytic activity); format: in vivo, rat
Excerpt: (§1) The elevated plus-maze was developed for the detection of anxiolytic and anxiogenic drug effects in the rat (Pellow et al., 1985). The method has been validated behaviorally, physiologically, and pharmacologically. The plus-maze consists of two open arms and two enclosed arms. […] Conversely, anxiogenic compounds like yohimbin or amphetamines reduce open arm entries and time spent in the open arms.
Male Wistar rats weighing 250-300 g were group housed in a normal 12:12 light-dark cycle light on at 0800 hr and provide food and water ad libitum. The plus-maze consisted of two open arms, 50×10 cm, and two enclosed arms 50×10×40 cm with an open roof, arranged such that the two open arms were opposite to each other. The maze was elevated to a height of 50 cm.
Eight animals were tested in the plus-maze 90 min following IP injection with 50 μg/kg Mox and saline vehicle. The order of treatments was counter balanced with at least 48 hrs between injections. At the start of the experiment the animal was place in the center of the plus maze facing the closed arm. Over a five min observation period, animals were scored for the latency to enter the closed arm, time spent in the closed arm and the number of open arm entries following the first occupation of the closed arm (FIG. 7).
Because Mox and CDP have different bioavailability profiles, e.g. brain penetrance, their CNS activity could not be compared by giving systemic injections of equimolar concentrations of each drug. Instead it was necessary to give both drugs directly into the cerebroventricular system to by pass the blood brain barrier. Animals were anesthetized with sodium pentobarbital (50 mg/kg), implanted with microinjection guide cannulae aimed at the lateral ventricle and allowed to recover for two days before testing. To groups of six animals each were tested with Mox or CDP. Each animals received a injection of drug and 0.9% NaCl vehicle on two separate days. The order of injections was counterbalanced and separated by two days. Both Mox and CDP were prepared in 0.9% NaCl at a concentration of 1 mM. All injections were given in a volume of 2 ul over 10 secs in fully conscious, restrained animals. Sixty min later animals were tested in the plus-maze for a 3 min observation period and scored for behaviors as noted previously.
as §1, with “screening” for “the detection of”
Male Wistar rats weighing 250-300 g were group housed in a normal 12:12 light-dark cycle with light on at 0800 hr and provided food and water ad libitum. The plus-maze consisted of two open arms, 50 cm long, 10 cm wide, with walls 40 cm high made of clear Plexiglas. The two closed arms had the same dimensions but included a roof. The Plexiglas for the closed arms was painted black. Each pair of arms was arranged opposite to each other to form the plus-maze. The maze was elevated to a height of 50 cm. Eighteen animals were tested in the plus-maze 90 min following the IP injection of 1.0 μg/kg CLAV, 50 or vehicle control in a volume of ca. 0.3 ml. The order of treatments was counter balanced with at least 48 hrs between injections. At the start of the experiment, the animal was placed at the end of one of the open arms. Over a five min observation period, animals were scored for the latency to enter the closed arm, time spent in the closed arm and the number of open arm entries following the first occupation of the closed arm. The study produced tables of repeated measures. The data between treatments were compared with a two-way, repeated measures ANOVA followed by Bonferroni post hoc tests. […]

[1] = daily IP for seven days: CLAV 100 ng/kg, CDP 10 mg/kg

Compound: O=C(O)[C@H]1/C(=C/CO)O[C@@H]2CC(=O)N21 [CLAV, Clavulanic acid]
- percentage of time spent in each quadrant (rats; CLAV 1.0 μg/kg): no significant difference between treatments
- swim rate (rats; CLAV 1.0 μg/kg): no significant difference
- latency to find the platform, main effect (rats; CLAV 1.0 μg/kg one hr before testing): no main effect for drug treatment
- path length to find the platform (rats; CLAV 1.0 μg/kg, Day 1): much shorter distance
- time spent in the correct (South) quadrant (rats; CLAV 1.0 μg/kg, Day 2): over 50%
- latency to find the platform (rats; CLAV 1.0 μg/kg, Days 1 and 4, trend towards significance): shorter latencies
- open arm entries (Male Wistar rats; CLAV 1.0 μg/kg IP, 90 min): increased movement into the lighted open arms
- time spent in the open arm (Male Wistar rats; CLAV 1.0 μg/kg IP, 90 min): significantly increased
- latency to enter the dark (time in starting open light position) (Male Wistar rats; CLAV 1.0 μg/kg IP, 90 min, five min observation): longer
- latency to enter the dark closed arms (Male Wistar rats; [1]): significantly greater
- time spent exposed to light in the open arms (Male Wistar rats; [1]): significantly greater

Compound: CO[C@@]1(NC(=O)C(C(=O)O)c2ccc(O)cc2)C(=O)N2C(C(=O)O)=C(CSc3nnnn3C)CO[C@@H]21 (stereo partly drawn) [Mox, 7-β-[2-carboxy-2-(4-hydroxyphenyl)acetamido]-7α-methoxy-3-[[(1-methyl-1H-tetrazol-5-yl)thio]methyl]-1-oxa-1-dethia-3-cephem-4-carboxylic acid]
- distance covered to reach the platform (rats; Mox 50 μg/kg): not significantly different
- percentage of time spent in each quadrant (rats; Mox 50 μg/kg): no significant difference between treatments
- swim speed (rats; Mox 50 μg/kg): significantly greater swim speed
- latency to find the hidden platform (rats; Mox 50 μg/kg one hr before testing, days two, three and four): significantly shorter latencies
- swim speed relative to vehicle (rats; Mox 50 μg/kg, Day 2): almost twice the speed
- number of open arm entries (Male Wistar rats; 50 μg/kg IP, 90 min): significantly elevated
- time spent in the closed arm (Male Wistar rats; 50 μg/kg IP, 90 min): significantly reduced
- latency to enter the closed arm (Male Wistar rats; 50 μg/kg IP, 90 min, five min observation): significantly increased
- time spent in the closed arm (dark) (Male Wistar rats; 1 mM, 2 ul into lateral ventricle, 60 min): significantly (p<0.01) lower
- latency to enter the closed arm (Male Wistar rats; 1 mM, 2 ul into lateral ventricle, 60 min, 3 min observation): significantly (p<0.05) delayed

From patent US7842683B2, “Neurotherapeutic compositions and method” (Revaax Pharmaceuticals, LLC, priority 1999, dated 2010)
